For series [1], the system named is HeLa. The series is described as follows: Cytotoxicity against human HeLa cells assessed as reduction in cell viability incubated for 48 hrs by MTT assay. The format is functional, cell-based.
Series [2] relates to HCT-116. The series is described as follows: Cytotoxicity against human HCT-116 cells assessed as reduction in cell viability incubated for 48 hrs by MTT assay. The format is functional, cell-based. The following applies: HCT-116, 48 h.
Series [3] deals with HepG2. The series is described as follows: Cytotoxicity against human HepG2 cells assessed as reduction in cell viability incubated for 48 hrs by MTT assay. Particulars: HepG2, 48 h. The format is functional, cell-based. (In general: Tetrazolium assays rely on reduction of a dye to a coloured formazan, in cell work by metabolically active cells.)
For series [4], the system named is RAW264.7. The series is described as follows: Anti-inflammatory activity in mouse RAW264.7 cells assessed as inhibition of LPS-induced NO production incubated for 24 hrs by Griess reagent based assay. The format is functional, cell-based. Particulars: RAW264.7, 24 h.
Series [5] relates to RAW264.7. In words: Cytotoxicity against mouse RAW264.7 cells after 24 hrs by MTT assay. The format is cell-based. Particulars: raw264.7, 24 h.

Usually IC50 stands for the concentration needed to halve the response being measured.

Consider `CC(C)CC(=O)O[C@H]1[C@@H]2[C@H](C)C(=O)O[C@@H]2C[C@@H](C)[C@@H]2C=CC(=O)[C@]21C`, for which the IC50 in series [1] is 5.5 µM; in series [2], 7.2 µM; in series [3] it was greater than 10 µM; in series [4], 1700 nM.

Take `C/C=C(\C)C(=O)O[C@H]1[C@@H]2[C@H](C)C(=O)O[C@@H]2C[C@@H](C)[C@@H]2C=CC(=O)[C@]21C`: the IC50 is greater than 10 µM in series [1], greater than 10 µM in series [2], greater than 10 µM in series [3] and greater than 10000 nM in series [4].

Take `C=C(C)C(=O)O[C@@H]1[C@@H]2[C@H](C[C@H](C)C3=CCC(=O)[C@@]31C)OC(=O)[C@@H]2C`: the IC50 in series [1], in series [2] and in series [3] was greater than 10 µM in each case.

Consider `C=C1C(=O)O[C@@H]2C[C@@H](C)[C@@H]3[C@@H](OC)CC(=O)[C@@]3(C)[C@@H](OC(=O)/C(C)=C\C)[C@H]12`, for which the IC50 in series [1], in series [2] and in series [3] was greater than 10 µM in each case.

`C=C1C(=O)O[C@H]2C[C@@H](C)[C@@H]3[C@@H](OC(=O)C=C(C)C)C[C@@H](OC(=O)/C(C)=C\C)[C@@]3(C)C[C@H]12`: the values for the IC50 in series [1], in series [2] and in series [3] were greater than 10 µM, 9.4 µM and 3.5 µM, respectively.

`C=C(C)C(=O)O[C@@H]1C[C@H](OC(=O)C(C)C)[C@H]2[C@H](C)C[C@@H]3OC(=O)C(=C)[C@H]3C[C@@]21C`: the IC50 was greater than 10 µM in series [1], greater than 10 µM in series [2], greater than 10 µM in series [3] and 3900 nM in series [4].

As to `CC(C)=CC(=O)O[C@H]1[C@@H]2[C@H](C)C(=O)O[C@@H]2C[C@@H](C)C2=CCC(=O)[C@]21C`, the IC50 in series [1], in series [2] and in series [3] was greater than 10 µM each time.

For the molecule `C=C1C(=O)O[C@H]2C[C@@H](C)[C@@H]3[C@@H](OC(=O)/C(C)=C/C)C[C@@H](OC(=O)/C(C)=C\C)[C@@]3(C)C[C@H]12`, the half-maximal inhibitory concentration (IC50) turned out to be 7.8 µM in series [1], 6.6 µM in series [2] and 4.1 µM in series [3].

Regarding `C=C1C(=O)O[C@@H]2C[C@@H](C)[C@@H]3C=CC(=O)[C@@]3(C)[C@@H](OC(=O)C=C(C)C)[C@H]12`, the IC50 amounted to 2.6 µM in series [1], 0.8 µM in series [2] and 1.5 µM in series [3].

With `C=C1C(=O)O[C@H]2C[C@@H](C)[C@@H]3[C@@H](OC(=O)C(C)C)C[C@@H](OC(=O)C=C(C)C)[C@@]3(C)C[C@H]12`, the half-inhibitory concentration (IC50) in series [1] was greater than 10 µM; in series [2], 8.1 µM; in series [3] it was 6.5 µM.

As to `C=C1C(=O)O[C@H]2C[C@@H](C)[C@@H]3[C@@H](OC(=O)CC(C)C)C[C@@H](OC(=O)CC(C)C)[C@@]3(C)C[C@H]12`, the IC50 in series [1] is greater than 10 µM; in series [2], 9.9 µM; in series [3], greater than 10 µM; in series [4], 100 nM.

With `C=C1C(=O)O[C@H]2C[C@@H](C)[C@@H]3[C@@H](OC(=O)C(C)C)C[C@@H](OC(=O)CC(C)C)[C@@]3(C)C[C@H]12`, the IC50 in series [1] is greater than 10 µM; in series [2] it was greater than 10 µM; in series [3] it was greater than 10 µM; in series [4] it was 200 nM.

Consider `C=C1C(=O)O[C@@H]2C[C@@H](C)[C@@H]3C=CC(=O)[C@@]3(C)[C@@H](OC(=O)/C(C)=C\C)[C@H]12`, for which the IC50 in series [1] stood at 0.8 µM; in series [2] it was 2.9 µM; in series [3], 1.1 µM.

Turning to `C=C1C(=O)O[C@H]2C[C@@H](C)[C@@H]3[C@@H](OC(=O)C(C)C)C[C@@H](OC(=O)/C(C)=C/C)[C@@]3(C)C[C@H]12`, the results for the IC50 in series [1], in series [2] and in series [3] were greater than 10 µM, greater than 10 µM and 8.7 µM, respectively.

Turning to `CC(C)=CC(=O)O[C@H]1[C@@H]2[C@H](C)C(=O)O[C@@H]2C[C@@H](C)[C@@H]2CCC(=O)[C@]21C`, the half-inhibitory concentration (IC50) in series [1], in series [2] and in series [3] was greater than 10 µM in each case.

`C=C1C(=O)O[C@@H]2C[C@@H](C)[C@@H]3C(OC(=O)/C(C)=C\C)=C[C@@]4(C)O[C@@]34C[C@H]12`: the IC50 in series [1], in series [2] and in series [3] was greater than 10 µM throughout.

With `C=C(C)C(=O)O[C@H]1[C@@H]2[C@H](C)C(=O)O[C@@H]2C[C@@H](C)[C@@H]2CCC(=O)[C@]21C`, the concentration for half-maximal inhibition (IC50) in series [1], in series [2] and in series [3] was greater than 10 µM throughout.

Consider `C/C=C(/C)C(=O)O[C@H]1[C@@H]2[C@H](C)C(=O)O[C@@H]2C[C@@H](C)[C@@H]2[C@H](OC)CC(=O)[C@]21C`, for which the IC50 in series [1] is greater than 10 µM; in series [2], greater than 10 µM; in series [3] it was greater than 10 µM; in series [4] it was greater than 10000 nM.

For `C/C=C(/C)C(=O)O[C@H]1[C@@H]2[C@H](C)C(=O)O[C@@H]2C[C@@H](C)[C@@H]2CCC(=O)[C@]21C`, the IC50 in series [1] was greater than 10 µM; in series [2], greater than 10 µM; in series [3], greater than 10 µM; in series [4] it was greater than 10000 nM.

With `C=C1C(=O)O[C@H]2C[C@@H](C)[C@@H]3[C@@H](OC(=O)C(C)C)C[C@@H](OC(=O)C(C)C)[C@@]3(C)C[C@H]12`, the IC50 in series [1] is greater than 10 µM; in series [2] it was greater than 10 µM; in series [3], 6.5 µM.

As to `C/C=C(/C)C(=O)O[C@H]1[C@@H]2[C@H](C)C(=O)O[C@@H]2C[C@@H](C)[C@@H]2[C@@H](OCC)CC(=O)[C@]21C`, the IC50 in series [1] was greater than 10 µM; in series [2], greater than 10 µM; in series [3], greater than 10 µM; in series [4], greater than 10000 nM.

As to `CCC(C)C(=O)O[C@H]1[C@@H]2[C@H](C)C(=O)O[C@@H]2C[C@@H](C)[C@@H]2C=CC(=O)[C@]21C` (stereo not given in full), the IC50 in series [1] was 2.4 µM; in series [2], 7.3 µM; in series [3], greater than 10 µM; in series [4] it was 2400 nM.

With `C=C1C(=O)O[C@H]2C[C@@H](C)[C@@H]3[C@@H](OC(=O)/C(C)=C\C)C[C@@H](OC(=O)CC(C)C)[C@@]3(C)C[C@H]12`, the IC50 was 9.4 µM in series [1], 5.2 µM in series [2], 2.9 µM in series [3] and greater than 10000 nM in series [4].

For `C=C1C(=O)O[C@@H]2C[C@@H](C)[C@@H]3C=CC(=O)[C@@]3(C)[C@@H](OC(=O)CC(C)C)[C@H]12`, the IC50 in series [1] is 2 µM; in series [2], 3.3 µM; in series [3], 2.6 µM; in series [4], 200 nM.

Regarding `C/C=C(/C)C(=O)O[C@H]1[C@@H]2[C@H](C)C(=O)O[C@@H]2C[C@@H](C)[C@@H]2C=CC(=O)[C@]21C` [BREVILIN A], the IC50 is 9.2 µM in series [1], greater than 10 µM in series [2] and greater than 10 µM in series [3]. Also, in series [5], the Activity entry is on record as “Toxic”.

Turning to `C=C1C(=O)O[C@@H]2C[C@@H](C)[C@@H]3C=CC(=O)[C@@]3(C)[C@@H](OC(=O)C(C)C)[C@H]12` [HELENALINISOBUTYRATE], the IC50 in series [1] was 1.4 µM; in series [2], 0.4 µM; in series [3], 1.8 µM.
